Consider 1 compound from patent EP0427925A2, “Use of prophenytoin for preparing pharmaceutical preparations for treating stroke and cerebral ischemia” (WARNER-LAMBERT COMPANY, priority 1989, dated 1991).

Where a name gives a salt, the structure may show the parent alone.

For data set [1], the system named is middle cerebral artery occlusion (MCAO) model. The data set can be described thus: Middle cerebral artery occlusion (MCAO) model, infarct area and volume by TTC stain. The class given is in vivo, male F-344 rats. The conditions noted are these: 37 mg/kg IV 30 minutes and 24 hours after occlusion. The text has this: The model depends on a surgical procedure which is a modification of that originally proposed by A. Tamura, et al, "Focal Cerebral Ischemia in the Rat: Description of Technique and Early Neuropathological Consequences Following Middle Cerebral Artery Occlusion," J. Cerb. Blood Flow Metab. Vol. 1, pp. 53-60 and is similar to the methods described by Duverger and MacKenzie, "The Quantification of Cerebral Infarction Following Local Ischemia in the Rat: Influence of Strain, Arterial Pressure, Blood Glucose Concentration and Age", J. Cerb. Blood Flow Metab., Vol. 8, pp. 449-461 and S. Brint, et al, "Focal Brain Ischemia in the Rat: Methods for Reproducible Neocortical Infarction Using Tandem Occlusion of the Distal Middle Cerebral and Ipsilateral Common Carotid Arteries", J. Cereb. Blood Flow Metab., Vol. 8, pp. 474-485.
Generally, male F-344 rats weighing 300-350 g are anesthetized in 2% halothane in room air. The right femoral vein is cannulated and the tubing led subcutaneously to an exit behind the neck to allow intravenous (IV) drug injection. The left common carotid is permanently occluded with a 6-0 silk ligature. The left middle cerebral artery (MCA) is exposed through a 2-mm burr hole drilled 1-2 mm rostral to the fusion of the zygomatic arch with the squamosal bone. The dura is cut, the MCA lifted off the surface of the brain, electrocauterized, and cut. The wound margins are sutured shut and the anesthesia stopped.
The stable pharmaceutical composition is used for the assay or a solution for the assay may be prepared as follows: The hydrated fosphenytoin sodium (2.25 H₂O equivalent per mole) is dissolved in saline (pH = 7) at a concentration of 37 mg/mL and administered at 1 mL/kg. This dose of 37 mg/kg is equal to 30 mg/kg of the free base of fosphenytoin sodium. In vivo fosphenytoin sodium or the phenytoin prodrug undergoes a phosphate ester cleavage followed by a dehydroxymethylation to yield the free base of phenytoin. The dose administered is equivalent to 21 mg/kg of the free base of phenytoin.
This solution is then administered intravenously (IV) 30 minutes and 24 hours after occlusion to groups of 12 animals each. Forty-eight hours following occlusion rats are anesthetized with ketamine (150 mg/kg, IP), decapitated, the brains rapidly removed, and placed on ice. With the aid of a brain mold (Activational Systems), the brain is sliced into four 2-mm sections: one section anterior (ANT) to the MCA and three sections posterior (ANT-MED, POST-MED, and POST) to the MCA. The sections are then placed for 30 minutes in a 2% solution of 2,3,5 triphenyltetrazolium chloride (TTC) in saline. The brains are stored in 10% neutral buffered […] for analysis.
The brains are coded and the analysis is performed blinded. The area of infarction in each section is outlined with the aid of a morphometric analysis program (Bioquant IV, R & M Biometrics). The TTC stain is converted into a red marker in live mitochondria, while the infarcted area remains white. The total volume of infarction is calculated from the areas of the four sections assuming three truncated cones. The mean area for each section and the mean total volume are calculated; vehicle and drug treatment are compared using the Student's t-test.

Data set [2] is described as follows: Compatibility with standard intravenous solutions (precipitate formation). The class given is physicochemical. Conditions: solutions and mixes with standard intravenous solutions (dextrose, saline, Ringers lactate). The text has this:
Supplementary active ingredients can also be incorporated into the formulations of formula I and its salts. The formula I and its salts, and particularly fosphenytoin sodium, can be and is formulated so as to be compatible with the commonly used intravenous fluids including solutions based on dextrose, […] or 0.9% saline as well as more complicated solutions including/such as Ringers lactate, and the like.

Setting [3] is: section posterior to the MCA, forty-eight hours following occlusion, mean ± standard deviation, N = 12.

For the compound `O=C1NC(c2ccccc2)(c2ccccc2)C(=O)N1COP(=O)(O)O` [Disodium Salt of Prophenytoin, 3-(hydroxymethyl)-5,5-diphenylhydantoin disodium phosphate ester], the “% Change, POST” value in data set [1] (area of infarction vs Vehicle, Probability 0.006) is given as -71.56%. Moreover, the “% Change, POS-MED” value in data set [1] (area of infarction vs Vehicle, Probability 0.008) was -57.10%. Besides, in data set [1] (area of infarction vs Vehicle, Probability 0.049), the “% Change, ANT-MED” value is recorded as -22.82%. Also, the “% Change, ANT” value in data set [1] (area of infarction vs Vehicle, Probability 0.160) is reported as -18.58%. For the same compound, the “TOTAL VOLUME of infarction” value in data set [1] (calculated from the areas of the four sections, forty-eight hours following occlusion, mean ± standard deviation, N = 12) was 43.21 ±21.85. In addition, in data set [1] (section anterior to the MCA, forty-eight hours following occlusion, mean ± standard deviation, N = 12), the “area of infarction, ANT” value amounted to 9.03 ± 2.91. Further, in data set [1] (setting [3]), the “area of infarction, ANT-MED” value turned out to be 11.23 ± 2.95; the “area of infarction, POS-MED” value is on record as 5.23 ± 5.44; the “area of infarction, POST” value is reported as 2.97 ± 4.39. Also, the “% Change, TOTAL VOLUME” value in data set [1] (total volume of infarction vs Vehicle, Probability 0.010) was -42.07%. Moreover, in data set [2], the “precipitate formation in standard intravenous solutions” value was “do not form precipitates”.
